Drawing on ChEMBL document CHEMBL3044704, “Synthesis, characterization, antioxidant, and anticancer studies of 6-[3-(4-chlorophenyl)-1H-pyrazol-4-yl]-3-[(2-naphthyloxy)methyl][1,2,4]triazolo[3,4-b][1,3,4]thiadiazole in HepG2 cell lines” (Med Chem Res, 2011), this text covers Activity, IC50 and inhibition for 2 compounds.

Test [1] relates to HepG2. Description: Induction of cell cycle arrest in Homo sapiens (human) HepG2 cells assessed as G2/M phase cells at 0.08 ug/ml after 24 hr by flow cytometric analysis (reference value: 12.92 +/- 0.27%). Format: functional. (A flow cytometer gives signals particle by particle.)
Test [2] deals with HepG2. Briefly: Induction of cell cycle arrest in Homo sapiens (human) HepG2 cells assessed as S phase cells at 0.06 ug/ml after 24 hr by flow cytometric analysis (reference value: 32.84 +/- 1.06%). It counts as functional.
Test [3] concerns HepG2. Description: Induction of cell cycle arrest in Homo sapiens (human) HepG2 cells assessed as G1 phase cells at 0.06 ug/ml after 24 hr by flow cytometric analysis (reference value: 50.68 +/- 1.42%). It counts as functional.
In test [4] the test system is HepG2. Briefly: Induction of cell cycle arrest in Homo sapiens (human) HepG2 cells assessed as subG1 phase cells at 0.08 ug/ml after 24 hr by flow cytometric analysis (reference value: 3.57 +/- 0.03%). It counts as functional.
For test [5], the system named is HepG2. Description: Cytotoxicity against Homo sapiens (human) HepG2 cells after 24 hr by MTT assay. It counts as functional, cell-based. Conditions: HepG2, 24 h. (In general: Tetrazolium assays rely on reduction of a dye to a coloured formazan, in cell work by metabolically active cells.)
In test [6] the test system is HepG2. Description: Induction of cell cycle arrest in Homo sapiens (human) HepG2 cells assessed as S phase cells at 0.08 ug/ml after 24 hr by flow cytometric analysis (reference value: 32.84 +/- 1.06%). Format: functional.
Test [7] deals with Radical scavenging activity. Description: Antioxidant activity assessed as inhibition of DPPH radical production after 20 min by spectrophotometric analysis. Format: functional. (Loss of DPPH colour is used to gauge radical scavenging.)
For test [8], the system named is HepG2. Briefly: Cytotoxicity against Homo sapiens (human) HepG2 cells assessed as chromatin condensation after 24 hr by Hoechst-staining method. It counts as functional, cell-based.
The test system of test [9] is HepG2. Description: Induction of cell cycle arrest in Homo sapiens (human) HepG2 cells assessed as G2/M phase cells at 0.06 ug/ml after 24 hr by flow cytometric analysis (reference value: 12.92 +/- 0.27%). Format: functional.
In test [10] the test system is HepG2. Briefly: Cytotoxicity against Homo sapiens (human) HepG2 cells assessed as inhibition of [3H]thymidine incorporation incubated for 3 hr prior to [3h]thymidine incorporation measured after 2 hr by liquid scintillation counting. It counts as functional, cell-based.
Test [11] has as its system HepG2. Description: Induction of cell cycle arrest in Homo sapiens (human) HepG2 cells assessed as G1 phase cells at 0.08 ug/ml after 24 hr by flow cytometric analysis (reference value: 50.68 +/- 1.42%). It counts as functional.
Test [12] deals with HepG2. Briefly: Induction of cell cycle arrest in Homo sapiens (human) HepG2 cells assessed as increase in subG1 phase cells after 24 hr by flow cytometric analysis. It counts as functional, cell-based.
Test [13] concerns HepG2. Description: Induction of cell cycle arrest in Homo sapiens (human) HepG2 cells assessed as subG1 phase cells at 0.06 ug/ml after 24 hr by flow cytometric analysis (reference value: 3.57 +/- 0.03%). Format: functional.
Test [14] is described as follows: Antioxidant activity assessed as inhibition of ABTS radical production after 20 min by spectrophotometric analysis. It counts as functional.

In brackets after ≈: the same amount, converted by molar mass. Activity calls are given as the source filed them. No cut-off for these calls is given here.

For `Clc1ccc(-c2n[nH]cc2-c2nn3c(COc4ccc5ccccc5c4)nnc3s2)cc1`, the Activity was 11.33% in test [1]; 28.82% in [2]; 56.59% in [3]; 12.33% in test [4]; 23.68% in test [6]; “Dose-dependent effect” in test [8]. Further, the Activity in [9] is 10.58%; in test [11] it was 52.65%; in test [12] it was “Dose-dependent effect”; in [13], 4%. Moreover, the IC50 – broadly, the concentration that gives 50% inhibition – in [5] came out at 0.8 µg/mL (≈ 1.74 µM); in test [7] it was 1.023 µg/mL (≈ 2.23 µM). In [10], the inhibition result was “Dose-dependent effect”. The inhibition result in test [14] is “Active”.

Consider `O=C1O[C@H]([C@@H](O)CO)C(O)=C1O` [ASCORBIC ACID], for which, in [7], the IC50 was 1.46 µg/mL (≈ 8.29 µM). Further, the inhibition entry in [14] was “Active”.
